Read-outs that look alike come from different tables or passages of the source.
Assays:
[1] = target: T1, human thyroid hormone receptors TRβ1 (Homo sapiens, UniProt P10828); assay: Receptor binding to TRβ1 (gel filtration and scintillation proximity assay, labeled T3); settings: read-out: Ki TRβ
T1 construct: made in house; host or cells: Sf9 insect cells (baculovirus)
T1 sequence (P10828 1-461): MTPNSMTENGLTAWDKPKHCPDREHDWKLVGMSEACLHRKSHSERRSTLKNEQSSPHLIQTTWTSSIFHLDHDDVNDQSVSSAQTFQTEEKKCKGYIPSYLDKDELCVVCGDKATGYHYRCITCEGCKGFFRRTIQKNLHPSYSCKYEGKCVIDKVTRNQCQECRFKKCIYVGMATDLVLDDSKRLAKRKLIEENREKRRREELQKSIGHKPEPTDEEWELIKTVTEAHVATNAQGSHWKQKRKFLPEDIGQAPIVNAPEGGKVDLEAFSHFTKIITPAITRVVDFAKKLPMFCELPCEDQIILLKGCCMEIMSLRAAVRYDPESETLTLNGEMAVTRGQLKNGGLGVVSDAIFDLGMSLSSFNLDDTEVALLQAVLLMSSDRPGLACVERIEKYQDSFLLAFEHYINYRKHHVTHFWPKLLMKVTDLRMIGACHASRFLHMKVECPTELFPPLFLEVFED
T1 sequence (P19793 1-462 partner): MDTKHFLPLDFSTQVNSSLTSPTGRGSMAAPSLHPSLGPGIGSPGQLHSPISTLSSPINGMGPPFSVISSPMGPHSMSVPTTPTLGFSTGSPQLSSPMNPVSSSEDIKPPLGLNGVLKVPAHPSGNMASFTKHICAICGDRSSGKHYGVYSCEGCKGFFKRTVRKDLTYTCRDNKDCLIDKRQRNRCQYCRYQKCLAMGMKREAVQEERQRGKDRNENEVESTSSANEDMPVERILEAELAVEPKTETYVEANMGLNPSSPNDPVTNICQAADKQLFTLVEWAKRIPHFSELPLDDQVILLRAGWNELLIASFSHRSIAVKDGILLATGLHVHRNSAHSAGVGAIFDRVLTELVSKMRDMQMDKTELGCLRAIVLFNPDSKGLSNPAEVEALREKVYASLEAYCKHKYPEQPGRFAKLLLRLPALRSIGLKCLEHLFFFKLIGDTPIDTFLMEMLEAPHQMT

[2] = target: T2, human thyroid hormone receptors TRα1 (Homo sapiens, UniProt P10827); assay: Receptor binding to TRα1 (gel filtration and scintillation proximity assay, labeled T3); settings: read-out: Ki TRα
T2 construct: made in house; host or cells: Sf9 insect cells (baculovirus)
T2 sequence (P10827 1-410 isoform P10827-2): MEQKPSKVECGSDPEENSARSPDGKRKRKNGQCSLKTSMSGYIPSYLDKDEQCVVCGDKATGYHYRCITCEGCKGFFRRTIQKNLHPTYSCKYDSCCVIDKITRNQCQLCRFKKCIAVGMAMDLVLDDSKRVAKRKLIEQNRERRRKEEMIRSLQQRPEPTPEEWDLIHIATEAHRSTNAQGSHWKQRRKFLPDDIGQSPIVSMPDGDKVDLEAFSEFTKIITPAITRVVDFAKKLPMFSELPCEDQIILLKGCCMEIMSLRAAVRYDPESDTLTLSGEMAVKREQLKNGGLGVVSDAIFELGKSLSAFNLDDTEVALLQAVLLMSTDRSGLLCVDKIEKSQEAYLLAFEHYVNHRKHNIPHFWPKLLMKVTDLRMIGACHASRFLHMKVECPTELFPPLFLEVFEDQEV
T2 sequence (P19793 1-462 partner): T1 sequence (P19793 1-462 partner)

[3] = tested on: plasma cholesterol; assay: Cholesterol lowering in hypercholesterolemic rats; type: in vivo; settings: Rattus norvegicus, read-out: % Cholesterol Lowering
[4] = ip, delivered i.p (0.2 mg/kg/d), percentage change from pre-dose cholesterol
[5] = po, delivered p.o. (0.2 mg/kg/d), percentage change from pre-dose cholesterol

SMILES | Ki [1] | Ki [2] | Ki ([1]; SPA data) | Ki ([2]; SPA data) | change in vivo at 0.2 mg/kg/day [3, 4] | change in vivo at 0.2 mg/kg/day [3, 5] | change in vivo at 0.2 mg/kg/day ([3]; po)
CC(C)c1cc(Oc2c(I)cc(OCP(=O)(O)O)cc2I)ccc1O [Compound 8, [3,5-diiodo-4-(4′-hydroxy-3′-iso-propylphenoxy)phenoxy]methylphosphonic acid] | 0.97 nM | 3.74 nM | – | – | -24.3% | -20.6% | –
CC(C)c1cc(Oc2c(Br)cc(OCP(=O)(O)O)cc2Br)ccc1O [Compound 8-1, [3,5-dibromo-4-(3′-iso-propyl-4′-hydroxyphenoxy)phenoxy]methylphosphonic acid] | 2.51 nM | 18.6 nM | – | – | – | -32.2% | –
CC(C)c1cc(Oc2c(Cl)cc(OCP(=O)(O)O)cc2Cl)ccc1O [Compound 8-2, [3,5-dichloro-4-(3′-iso-propyl-4′-hydroxyphenoxy)phenoxy]methylphosphonic acid] | – | – | 20 nM | 114 nM | -48% | – | –
O=P(O)(O)Cc1cc(Cl)c(Oc2ccc(O)c(Cc3ccc(F)cc3)c2)c(Cl)c1 [Compound 11, 3,5-dichloro-4-[3′-(4-fluorobenzyl)-4′-hydroxyphenoxy]benzylphosphonic acid] | – | – | 30.3 nM | 121 nM | -36.4% | -5.1% | –
CC(C)c1cc(Oc2c(Cl)cc(CP(=O)(O)O)cc2Cl)ccc1O [Compound 19, [3,5-dichloro-4-(4′-hydroxy-3′-iso-propylphenoxy)]benzylphosphonic acid] | 52 nM | 304 nM | – | – | -19% | – | –
CC(C)c1cc(Oc2c(Cl)cc(NCP(=O)(O)O)cc2Cl)ccc1O [Compound 22, [3,5-dichloro-4-(4′-hydroxy-3′-iso-propylphenoxy)phenylamino]methylphosphonic acid] | – | – | 31 nM | 186 nM | -44% | -16.5% | –
Cc1cc(/C=C/P(=O)(O)O)cc(C)c1Cc1ccc(O)c(C(C)C)c1 [Compound 24-2, trans-2-[3,5-dimethyl-4-(4′-hydroxy-3′-iso-propylbenzyl)phenyl]vinylphosphonic acid] | – | – | 24 nM | > 2000 nM | -20.5% | – | –
CCC(C)c1cc(Cc2c(C)cc(CCP(=O)(O)O)cc2C)ccc1O (stereo not shown) [Compound 24-3, 2-[4-(3′-sec-butyl-4′-hydroxy-benzyl)-3,5-dimethyl-phenyl]-ethylphosphonic acid] | – | – | 2.87 nM | 113 nM | -48.6% | – | –
Cc1cc(OCP(=O)(O)O)cc(C)c1Cc1ccc(F)c(C(C)C)c1 [Compound 27, [3,5-dimethyl-4-(4′-fluoro-3′-iso-propylbenzyl)phenoxy]methylphosphonic acid] | – | – | > 2000 nM | > 2000 nM | -20.8% | – | –
CC(C)c1cc(Oc2c(Br)cc(CCP(=O)(O)O)cc2Br)ccc1O [Compound 67, 2-[3,5-dibromo-4-(4′-hydroxy-3′-isopropylphenoxy)phenyl]ethylphosphonic Acid] | – | – | 1.8 nM | 37 nM | – | -17% | –
COP(=O)(O)Cc1cc(Br)c(Oc2ccc(O)c(C(C)C)c2)c(Br)c1 [Compound 69-2, [3,5-dibromo-4-(4′-hydroxy-3′-isopropylphenoxy)benzyl]phosphonic Acid Monomethyl Ester] | – | – | 0.8 nM | 2.8 nM | – | – | -49.9%

Second part, led by results:

Ki [1] | Ki [2] | Ki ([1]; SPA data) | Ki ([2]; SPA data) | SMILES | change in vivo at 0.2 mg/kg/day [3, 4] | change in vivo at 0.2 mg/kg/day [3, 5] | change in vivo at 0.2 mg/kg/day ([3]; po)
– | – | 14 nM | 375 nM | Cc1cc(/C=C/P(=O)(O)O)cc(C)c1Oc1ccc(O)c(C(C)C)c1 [Compound 28, trans-2-[3,5-dimethyl-4-(4′-hydroxy-3′-iso-propylphenoxy)phenyl]vinylphosphonic acid] | -20.5% | – | –
– | – | 47 nM | 661 nM | Cc1cc(CCCP(=O)(O)O)cc(C)c1Oc1ccc(O)c(C(C)C)c1 [Compound 29, 3-[3,5-dimethyl-4-(4′-hydroxy-3′-iso-propylphenoxy)phenyl]propylphosphonic acid] | -21.9% | – | –
– | – | 73 nM | 540 nM | Cc1cc(OCP(=O)(O)O)cc(C)c1Oc1ccc(O)c(C(C)C)c1 [Compound 31, [3,5-dimethyl-4-(4′-hydroxy-3′-iso-propylphenoxy)phenoxy]methylphosphonic acid] | -21.1% | – | –
– | – | 23 nM | 294 nM | Cc1cc(OCP(=O)(O)O)cc(C)c1Cc1ccc(O)c(C(=O)NCCc2ccccc2)c1 [Compound 37, [3,5-dimethyl-4-(4′-hydroxy-3′-phenethylcarbamoylbenzyl)phenoxy]methylphosphonic acid] | -0.4% | – | –
– | – | 5.4 nM | 254 nM | Cc1cc(OCP(=O)(O)O)cc(C)c1Cc1ccc(O)c(Cc2ccccc2)c1 [Compound 38, [4-(3′-benzyl-4′-hydroxy-benzyl)-3,5-dimethylphenoxy]methylphosphonic acid] | -21.7% | – | –
– | – | 1.1 nM | 30 nM | Cc1cc(OCP(=O)(O)O)cc(C)c1Cc1ccc(O)c(Cc2ccc(F)cc2)c1 [Compound 40, [3,5-dimethyl-4-[3′-(4-fluoro-benzyl)-4′-hydroxy-benzyl]phenoxy]methylphosphonic acid] | -64.2% | -27.3% | –
– | – | 16.2 nM | 794 nM | Cc1cc(CCP(=O)(O)O)cc(C)c1Cc1ccc(O)c(Cc2ccccc2)c1 [Compound 42, 2-[3,5-dimethyl-4-[3′-benzyl-4′-hydroxy-benzyl]phenyl]-ethylphosphonic acid] | -28.8% | – | –
– | – | 14 nM | 216 nM | Cc1cc2oc(P(=O)(O)O)cc2c(C)c1Cc1ccc(O)c(C(C)C)c1 [Compound 45, [4,6-Dimethyl-5-(4′-hydroxy-3′-iso-propyl)benzyl]benzofuran-2-phosphonic Acid] | -46.3% | -40.4% | –
– | – | 2 nM | 20 nM | Cc1cc(OCP(=O)(O)O)c(I)c(C)c1Cc1ccc(O)c(C(C)C)c1 [Compound 46, [3,5-Dimethyl-4-(4′-hydroxy-3′-iso-propylbenzyl)-2-iodophenoxy]methylphosphonic Acid] | -29.6% | -23.8% | –
– | – | 2.5 nM | 24.3 nM | Cc1cc(NCP(=O)(O)O)cc(C)c1Cc1ccc(O)c(C(C)C)c1 [Compound 47, [3,5-Dimethyl 4-(4′-hydroxy-3′-iso-propylbenzyl)-phenylamino]methylphosphonic Acid] | -29.3% | – | –
– | – | 9 nM | 129 nM | Cc1cc(OCP(=O)(O)O)cc(C)c1Cc1ccc(O)c(C2CC2)c1 [Compound 48, [4-(3′-cyclopropyl-4′-hydroxybenzyl)-3,5-dimethylphenoxy]methylphosphonic acid] | -23.4% | – | –
– | – | 48 nM | > 2000 nM | Cc1cc(S(=O)(=O)CP(=O)(O)O)cc(C)c1Cc1ccc(O)c(C(C)C)c1 [Compound 52, [3,5-dimethyl-4-(4′-Hydroxy-3′-iso-propylbenzyl)benzenesulfonyl]methylphosphonic acid] | -18.8% | – | –
– | – | 1.4 nM | 42.7 nM | Cc1cc(OCP(=O)(O)O)c(C)c(C)c1Cc1ccc(O)c(C(C)C)c1 [Compound 61, [4-(4′-hydroxy-3′-isopropylbenzyl)-2,3,5-trimethylphenoxymethyl]phosphonic acid] | – | -33.7% | –
– | – | 121 nM | 863 nM | Cc1cc2[nH]c(P(=O)(O)O)cc2c(C)c1Oc1ccc(O)c(C(C)C)c1 [Compound 66] | -42.9% | -12.5% | –
